{"source": "patent US20250057958A1", "about": "“CYTOTOXICITY TARGETING CHIMERAS FOR CCR2-EXPRESSING CELLS” (GLAXOSMITHKLINE INTELLECTUAL PROPERTY DEVELOPMENT LIMITED, priority 2022, published 2025)", "key": {"[1]": {"experiment": "Blood drug concentration analysis (PK) in the in vivo depletion assay", "design": "species or system human CCR2 (hCCR2) knock-in mice", "conditions": "human CCR2 (hCCR2) knock-in, C57 background, mouse, whole blood, LC-MS/MS, IV bolus 0.1 mpk compound + 10 mpk anti-cotinine antibody, 48 hours post-dose, read-out: Exposure of Compound of Formula (I) 48 hours post-dose", "method": "(§1) Human CCR2 (hCCR2) knock-in mice (C57 background) were dosed intravenously with a PBS solution containing a compound of Formula (I) to measure depletion of CCR2 expressing cells in peripheral blood. Peripheral blood from IV dosed mice was also analyzed to determine PK properties of the compounds of Formula (I).\n(§2) Administration to Animal: Solution formulation of antibody and compound of Formula (I) was injected (bolus injection) to the restrained mouse in the right/left lateral tail vein. Animals were dosed with 0.1 milligram per kilogram (mpk) of the compound of Formula (I) and 10 mpk of the anti-cotinine antibody.\nCollection of Blood for PK: Blood was collected at time points 0.25 hour, 2 hours, and […] following administration (50 μL/time point) through retro-orbital bleeding under mild isoflurane anesthesia.\n(§3) Terminal bleeding at end of experiment (48 hr): Approximately 250 μL of blood in K2EDTA tube and approximately 250 μL of blood in SST (serum separation tube) was collected from each mouse through retro-orbital bleeding under deep isoflurane anesthesia. After bleeding, each mouse was sacrificed by cervical dislocation. The blood distribution at termination was determined as follows: • For PK: 50 μL of K2EDTA blood was transferred to another tube for PK • Flow cytometry: Remaining blood (˜200 μL) was used for flow cytometry analysis. • For serum collection: serum separator tubes (BD) were centrifuged at 4° C., 5000 rpm for 15 minutes. Approximately 100 μL serum was separated and stored at −80° C. for further usage. • Blood drug concentration: Samples collected at the various timepoints (0.25 hr, 2 hr, 24 and 48 hr) were analyzed to determine blood drug concentration.\nBlood drug concentration analysis: Drug concentration in blood samples was determined by an LC-MS/MS-based bioanalytical method developed at Syngene. Samples were analyzed on Q-Trap, API-5500 LC-MS/MS system coupled with Exion UHPLC system from SCIEX, USA operated in multiple reaction monitoring mode employing electrospray ionization technique in positive polarity. Analyte and internal standard peaks were resolved on Synergi Polar, 75×2.0 mm, 4 μcolumn using mobile phase 10 mM Ammonium acetate in Milli-Q water as phase A and 0.1% Formic acid in acetonitrile as Phase B. Gradient elution was performed with initial composition 95% Phase A at 0.0 min, holding it for 0.2 minutes, ramping to 5% by 1.0 minute, keeping the same for next 0.5 minutes and coming back to 95% by 1.6 minutes. The total run time was 2 minutes.\nWorking dilutions for calibration curve and quality control standards were prepared by serially diluting 20 mg/mL stock solution with DMSO. Spiked concentrations for calibration curve in the whole blood ranged from 1 ng/mL to 1000 ng/mL. […]"}, "[2]": {"test_system": "CCR2 expressing cells (CD11b+Ly6c+Hi monocytes)", "experiment": "In vivo depletion assay (flow cytometry of peripheral blood)", "design": "species or system human CCR2 (hCCR2) knock-in mice", "conditions": "IV bolus 0.1 mpk compound + 10 mpk anti-cotinine antibody (mouse IgG2a Fc), 48 hours", "method": "as §1\nFormulations preparation: On the day of experiment, the stock solution of the compound of Formula (I) was removed from storage at −20° C. and thawed at room temperature. Anti-cotinine antibody having a heavy chain sequence of SEQ ID NO: 13 and a light chain sequence of SEQ ID NO: 14 (rabbit variable region sequence with mouse IgG2a Fc domain), if required was removed from storage at −80° C. and thawed at room temperature. Antibody vials were immediately transferred into wet ice after thawing. Compounds of Formula (I) were further diluted in DMSO as per experimental requirements.\nFormulation composition: The formulation composition was Saline: DMSO: PBS. Saline was added based on the quantity required and then stock solution of the compound of Formula (1) prepared in DMSO, followed by addition of antibody in PBS. Formulations were incubated at room temperature for 30 minutes before administration to the mouse. DMSO was used at 1 to 2% (v/v) in the final formulation.\nas §2, §3\nFlow cytometry analysis: CCR2 depletion in peripheral blood was determined by flow cytometry. Briefly, peripheral blood was collected from all animals at the end of study termination and processed. […]\nPercent depletion of CD11b+Ly6c+Hi cells and CCR2 expression for the different treatment groups was determined. […]"}, "[3]": {"target": "T1, CHOK1 cells engineered to overexpress human CCR2 (Homo sapiens, UniProt P41597)", "T1 construct": "expressed in transfected cells; host or cells: CHOK1 cells", "experiment": "Antibody dependent cellular cytotoxicity (ADCC) reporter assay", "assay_type": "cell-based", "conditions": "with anti-cotinine antibody (SEQ ID NO: 11/12, human IgG1 Fc S239D/I332E); Jurkat FcγRIIIa NFAT-luciferase reporter cells; 12-18 hours; average if more than one run; read-out: ADCC Reporter Assay pEC50 (converted)", "method": "An antibody dependent cellular cytoxocity reporter assay was conducted using the following four assay components: (i) ARM compound of Formula (I) targeting CCR2 (concentrations ranging from 1 pM to 10 μM) (ii) anti-cotinine antibody having a heavy chain sequence of SEQ ID NO: 11 and a light chain sequence of SEQ ID NO: 12 (rabbit variable region with human IgG1 Fc domain containing a DE mutation (S239D/I332E)) (concentrations ranging from 0.01 μg/mL to 200 μg/mL); (iii) target cells: CHOK1 cells engineered to overexpress either human CCR2 (typically 1000-20,000 cells perwell) and (iv) reporter cells: Jurkat cells engineered to express FcγRIIIa with the reporter gene luciferase under the control of the NFAT promoter (typically 3000-75,000 cells per well). Reagents were combined in a final volume of 20 μL in a 384—well tissue culture treated plate. All four assay components were incubated together for about 12-18 hours. Thereafter, BioGlo Detection reagent (Promega) was added to the wells to lyse the cells and provide a substrate for the luciferase reporter protein. Luminescence signal was measured on a microplate reader and signal:background was calculated by dividing the signal of a test well by the signal obtained when no ARM compound of Formula (I) was added. EC50 calculations were done using Graphpad Prism Software, specifically a nonlinear regression curve fit (Y=Bottom+(Top−Bottom)/(1+10 ^((Log EC50−X)*HillSlope))).\nARMs compounds of Formula (I) of the invention were tested for ADCC activity in the above assay in or more experimental runs and the results are shown in Table 3 below. Potency of the compounds of Formula (I) of the invention is reported as a pEC50 value. The pEC50 value is the negative log of the EC50 value, wherein the EC50 value is the half maximal effective concentration measured in molar (M). For compounds tested in more than one experimental run, the pEC50 value is reported as an average."}}}
{"smiles": "CC(=O)N[C@@H]1C[C@H](NC(C)(C)C)CC[C@@H]1N1CC[C@H](Nc2nc(CCCNC(=O)[C@H]3CC[C@H](NC(=O)CCCO[C@H]4CC[C@H](OCCNC(=O)[C@H]5CC(=O)N(C)[C@@H]5c5cccnc5)CC4)CC3)nc3ccc(C(F)(F)F)cc23)C1=O", "note": "[Example 1, (2S,3S)—N-(2-(((1R,4S)-4-(4-(((1S,4R)-4-((3-(4-(((S)-1-((1S,2R,4R)-2-Acetamido-4-(tert-butylamino)cyclohexyl)-2-oxopyrrolidin-3-yl)amino)-6-(trifluoromethyl)quinazolin-2-yl)propyl)carbamoyl)cyclohexyl)amino)-4-oxobutoxy)cyclohexyl)oxy)ethyl)-1-methyl-5-oxo-2-(pyridin-3-yl)pyrrolidine-3-carboxamide]", "values": [{"measurement": "concentration at 48 h", "setting": "[1]", "result": 42.9, "unit": "ng/mL"}, {"measurement": "% Depletion of CCR2 expressing cells", "setting": "[2]", "result": 89.18, "unit": "%"}, {"measurement": "EC50", "setting": "[3]", "result": 0.158, "unit": "nM"}]}
